Laboratory results as given in ChEMBL document CHEMBL1150610, “Diterpenoids from Isodon adenantha” (J Nat Prod, 2002).
In brackets after ≈: the same amount, converted by molar mass.

These molecules were tested on K562 (assay: Cytotoxicity against human K562 cells).
Type: functional, cell-based

For `C=C1C(=O)[C@]23C[C@H]1C[C@H](OC(C)=O)[C@H]2[C@]1(C)[C@@H](OC(C)=O)C[C@H](O)C(C)(C)[C@H]1C[C@@H]3OC(C)=O` [ADENANTHIN C], which IC50 is on record?
The IC50 was 3.3 µg/mL (≈ 6.92 µM).

Which IC50 does the source give for `C=C1C(=O)[C@]23C[C@H]1C[C@H](OC(C)=O)[C@H]2[C@]1(C)[C@@H](OC(C)=O)C[C@H](O)C(C)(C)[C@H]1[C@@H](O)[C@@H]3OC(C)=O` [WEISIENSIN A] here?
Its IC50 is 3.3 µg/mL (≈ 6.7 µM).

How did the IC50 turn out when `C=C1C(=O)[C@]23C[C@H]1C[C@H](O)[C@H]2[C@@]1(C)[C@H](C[C@@H]3OC(C)=O)C(C)(C)[C@@H](OC(C)=O)C[C@@H]1O` [ADENANTHIN F] was run?
The IC50 was 3.6 µg/mL (≈ 8.28 µM).
